The text below walks through data of patent US20210032257A1, “(E)-1-(4-(DIMETHYLAMINO)BUT-2-ENOYL)PYRROLIDIN-3-YL 4-((3-ISOPROPYL-5-METHYLPYRAZOLO[1,5-A]PYRIMIDIN-7-YL)AMINO)PIPERIDINE-1-CARBOXYLATE FOR INHIBITING CDK7” (Eli Lilly and Company, priority 2017, published 2021).

Assay [1] concerns the target T1, CDK13/CycK (Homo sapiens, UniProt Q14004).
T1 construct: purchased ProQinase
Put plainly: ProQinase radiometric protein kinase assay, 10 concentrations. The format is biochemical. The note with it: kinase 29.2 nM, ATP 0.3 μM. The protocol:
(§1) A radiometric protein kinase assay (33PANQINASE® Activity Assay, ProQinase) is used for measuring the kinase activity of the 320 protein kinases. All kinase assays are performed in 96-well FLASHPLATES™ in a 50 μL reaction volume. The reaction cocktail is pipetted in 4 steps in the following order:
(§2) All PKC assays (except the PKC-mu and the PKC-nu assay) additionally contain 1 mM CaCl2). 4 mM EDTA, 5 μg/mL Phosphatidylserine and 1 μg/mL 1,2-Dioleyl-glycerol. The CAMK1D, CAMK2A, CAMK2B, CAMK2D, CAMK2G, CAMK4, CAMKK1, CAMKK2, DAPK2, EEF2K, MYLK, MYLK2 and MYLK3 assays additionally contain 1 μg/mL Calmodulin and 0.5 mM CaCl2). The PRKG1 and PRKG2 assays additionally contain 1 μM cGMP. The DNA-PK assay additionally contained 2.5 μg/mL DNA.
(§3) The protein kinase reaction cocktails are incubated at 30° C. for 60 minutes. […] Kinases from external vendors (CAR=Carna Biosciences Inc.; INV=Life Technologies (Invitrogen Corporation™); MIL=Merck-Millipore (Millipore Corporation™), see Table 1) are expressed, purified and quality-controlled by virtue of the vendors readings.
(§4) CDK12 and CDK13 (ProQinase) are tested essentially as above but separately at 10 concentrations ([…] to […]) using semi-logarithmic dilutions. For the 10 points, the analysis the residual activities for each concentration and the compound IC50 values are calculated using QUATTRO® WORKFLOW™ V3.1.1. […]

The target in assay [2] is T2, CDK12/CycK (Homo sapiens, UniProt Q9NYV4).
T2 construct: purchased ProQinase
The assay is described as above. The class given is biochemical. The note with it: kinase 14.7 nM, ATP 0.3 μM. The protocol: as §1, §2, §3, §4

Assay [3] deals with phospho-carboxyl terminal domain (Ser5) in HCT116 cells. Put plainly: p-CTD (S5) cell based Acumen assay. The following applies: Homo sapiens, HCT-116, 4 hours, read-out: Relative IC50 for pCTD Ser5. As for the experimental part: HCT116 cells (ATCC CCL-247) are cultured in McCoy's 5A Medium Modified media supplemented with 10% FBS, 1% NaPyr and 1% Pen/Strep and plated (prior to becoming 70% confluent) in 96-well flat-bottom plates at a density of 5,000 cells per well in 100 μL volume. The cells are incubated overnight in a cell culture incubator (5% CO2, 95% Relative Humidity (RH) and 37° C.) and allowed to attach to the plate. The following morning, the cells are dosed with compounds. Compound inhibitors are solubilized at 60 μM in culture medium containing 0.6% DMSO. Subsequently compound serial dilutions (1:3) are prepared over a 60 μM to 0.003 μM range. […]
The following day cells are washed three times with PBS (100 μL/well) and incubated with 50 μL/well of secondary antibody (1:2000 dilution, Goat anti-rabbit IgM ALEXA FLUOR™ 488) in PBS for 1 hour at room temperature. […] Plates are analyzed on Acumen on FL2 (mean intensity), and FL3 (total intensity). Fluorescence plates are scanned with ACUMEN EXPLORER™ [Laser-scanning fluorescence microplate cytometer manufactured by TTP LABTECH LTD] to measure anti-phospho-carboxyl terminal domain at Serine 5 (pCTD). […] The IC50 is determined by curve fitting to a four parameter logistic for each output using GENE DATA™.

T1 sequence (Q14004 whole entry): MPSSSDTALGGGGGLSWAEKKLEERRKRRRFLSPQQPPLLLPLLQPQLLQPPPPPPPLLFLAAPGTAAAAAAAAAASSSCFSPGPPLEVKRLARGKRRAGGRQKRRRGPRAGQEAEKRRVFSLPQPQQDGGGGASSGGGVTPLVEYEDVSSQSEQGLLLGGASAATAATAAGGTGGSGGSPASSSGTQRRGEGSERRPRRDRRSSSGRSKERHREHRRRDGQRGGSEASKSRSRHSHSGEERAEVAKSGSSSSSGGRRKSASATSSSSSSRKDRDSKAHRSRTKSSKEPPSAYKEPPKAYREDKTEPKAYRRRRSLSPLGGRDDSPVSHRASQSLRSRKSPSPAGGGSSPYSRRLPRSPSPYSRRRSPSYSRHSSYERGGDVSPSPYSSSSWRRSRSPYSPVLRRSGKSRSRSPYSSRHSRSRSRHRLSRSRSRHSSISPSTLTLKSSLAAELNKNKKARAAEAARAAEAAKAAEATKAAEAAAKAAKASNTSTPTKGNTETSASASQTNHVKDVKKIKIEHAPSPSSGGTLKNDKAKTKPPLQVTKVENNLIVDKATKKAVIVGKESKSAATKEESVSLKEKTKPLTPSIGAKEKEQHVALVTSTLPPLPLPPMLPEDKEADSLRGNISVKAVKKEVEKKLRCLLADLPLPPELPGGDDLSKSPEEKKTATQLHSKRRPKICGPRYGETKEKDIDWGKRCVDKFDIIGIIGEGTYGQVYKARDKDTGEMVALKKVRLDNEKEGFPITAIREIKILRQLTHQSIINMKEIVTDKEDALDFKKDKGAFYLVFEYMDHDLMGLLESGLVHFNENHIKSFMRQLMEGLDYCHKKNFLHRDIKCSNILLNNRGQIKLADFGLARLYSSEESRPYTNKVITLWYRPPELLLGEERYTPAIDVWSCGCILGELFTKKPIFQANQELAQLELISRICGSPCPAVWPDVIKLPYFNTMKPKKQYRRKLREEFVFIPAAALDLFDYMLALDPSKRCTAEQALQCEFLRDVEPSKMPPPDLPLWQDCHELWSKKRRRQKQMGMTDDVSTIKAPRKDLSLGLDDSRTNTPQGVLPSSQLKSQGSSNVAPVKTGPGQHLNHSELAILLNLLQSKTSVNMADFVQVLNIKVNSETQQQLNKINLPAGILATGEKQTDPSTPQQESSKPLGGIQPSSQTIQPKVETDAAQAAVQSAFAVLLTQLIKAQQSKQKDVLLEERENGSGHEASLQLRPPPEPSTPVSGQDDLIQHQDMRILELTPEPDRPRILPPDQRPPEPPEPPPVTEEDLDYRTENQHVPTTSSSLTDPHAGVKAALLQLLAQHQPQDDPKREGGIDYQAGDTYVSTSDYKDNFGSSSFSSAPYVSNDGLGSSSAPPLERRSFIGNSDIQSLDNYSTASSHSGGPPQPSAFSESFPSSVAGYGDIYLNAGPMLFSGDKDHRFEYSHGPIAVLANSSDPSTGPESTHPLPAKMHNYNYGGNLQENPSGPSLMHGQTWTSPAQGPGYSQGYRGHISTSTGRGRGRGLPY
T1 sequence (O75909 whole entry partner): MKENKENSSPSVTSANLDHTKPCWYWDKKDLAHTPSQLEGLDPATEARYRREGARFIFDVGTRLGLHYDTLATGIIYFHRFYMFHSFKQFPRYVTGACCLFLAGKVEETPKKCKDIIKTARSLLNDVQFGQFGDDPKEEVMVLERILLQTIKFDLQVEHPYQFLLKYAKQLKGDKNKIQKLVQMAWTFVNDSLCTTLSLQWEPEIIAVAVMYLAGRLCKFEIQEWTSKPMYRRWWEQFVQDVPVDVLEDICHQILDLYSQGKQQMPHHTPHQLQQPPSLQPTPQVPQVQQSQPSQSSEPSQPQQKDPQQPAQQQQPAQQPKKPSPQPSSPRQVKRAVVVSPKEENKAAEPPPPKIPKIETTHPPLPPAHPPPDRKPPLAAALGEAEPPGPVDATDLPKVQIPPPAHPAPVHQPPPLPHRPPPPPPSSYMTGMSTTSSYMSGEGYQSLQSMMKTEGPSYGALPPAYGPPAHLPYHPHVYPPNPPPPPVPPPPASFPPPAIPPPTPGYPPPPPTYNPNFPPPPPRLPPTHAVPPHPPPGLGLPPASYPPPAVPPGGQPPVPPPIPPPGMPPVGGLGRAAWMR
T2 sequence (Q9NYV4 whole entry): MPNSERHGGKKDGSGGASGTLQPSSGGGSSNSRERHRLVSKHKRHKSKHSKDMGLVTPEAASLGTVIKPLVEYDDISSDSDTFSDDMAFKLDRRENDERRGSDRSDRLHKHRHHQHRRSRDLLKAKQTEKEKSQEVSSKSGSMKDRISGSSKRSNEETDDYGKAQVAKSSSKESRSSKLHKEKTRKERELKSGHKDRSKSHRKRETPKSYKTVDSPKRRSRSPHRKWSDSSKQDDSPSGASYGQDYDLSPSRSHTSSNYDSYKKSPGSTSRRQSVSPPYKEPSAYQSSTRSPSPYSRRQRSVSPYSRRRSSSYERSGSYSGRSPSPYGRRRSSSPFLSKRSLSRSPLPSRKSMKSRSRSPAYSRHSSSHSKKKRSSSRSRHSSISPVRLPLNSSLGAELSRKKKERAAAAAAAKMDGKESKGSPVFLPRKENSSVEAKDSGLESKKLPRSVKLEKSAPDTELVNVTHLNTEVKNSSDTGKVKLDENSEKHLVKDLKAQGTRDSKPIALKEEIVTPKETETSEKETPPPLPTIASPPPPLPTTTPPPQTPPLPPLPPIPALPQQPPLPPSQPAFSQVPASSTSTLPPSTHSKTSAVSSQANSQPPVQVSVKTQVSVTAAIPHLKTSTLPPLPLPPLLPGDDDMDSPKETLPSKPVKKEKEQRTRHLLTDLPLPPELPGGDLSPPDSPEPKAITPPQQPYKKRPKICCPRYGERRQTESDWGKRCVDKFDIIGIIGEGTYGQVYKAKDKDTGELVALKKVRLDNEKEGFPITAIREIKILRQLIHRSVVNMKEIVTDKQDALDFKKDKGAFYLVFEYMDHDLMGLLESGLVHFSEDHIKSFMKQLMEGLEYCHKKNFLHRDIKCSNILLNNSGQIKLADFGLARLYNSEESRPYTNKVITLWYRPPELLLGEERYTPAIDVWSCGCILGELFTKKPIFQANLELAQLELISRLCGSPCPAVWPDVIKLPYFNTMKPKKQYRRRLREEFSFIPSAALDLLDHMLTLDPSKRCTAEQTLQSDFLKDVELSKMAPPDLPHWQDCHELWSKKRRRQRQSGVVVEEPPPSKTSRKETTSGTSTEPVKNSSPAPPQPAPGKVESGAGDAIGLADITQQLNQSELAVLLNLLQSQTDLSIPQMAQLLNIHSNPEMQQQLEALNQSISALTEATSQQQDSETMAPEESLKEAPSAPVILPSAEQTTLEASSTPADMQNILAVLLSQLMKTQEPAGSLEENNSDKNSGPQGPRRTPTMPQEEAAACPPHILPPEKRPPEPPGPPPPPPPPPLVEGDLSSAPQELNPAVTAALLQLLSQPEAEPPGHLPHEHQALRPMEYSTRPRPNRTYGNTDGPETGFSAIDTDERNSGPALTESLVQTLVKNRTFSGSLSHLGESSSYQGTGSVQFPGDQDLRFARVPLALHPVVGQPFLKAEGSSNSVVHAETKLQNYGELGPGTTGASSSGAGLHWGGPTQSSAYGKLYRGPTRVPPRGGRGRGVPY
T2 sequence (O75909 whole entry partner): as the sequence (O75909 whole entry partner) above

For the compound `Cc1cc(NC2CCN(C(=O)O[C@H]3CCN(C(=O)/C=C/CN(C)C)C3)CC2)n2ncc(C(C)C)c2n1` [Example 1, [(3S)-1-[(E)-4-(dimethylamino)but-2-enoyl]pyrrolidin-3-yl] 4-[(3-isopropyl-5-methyl-pyrazolo[1,5-a]pyrimidin-7-yl)amino]piperidine-1-carboxylate], the IC50 was ≥ 20 µM in assay [1], 14.8 µM in assay [2] and 0.14 µM in assay [3].
